Patent US7081465B2, “Alpha-substituted naphthyloxy omega-substituted alky/aryl amino-substituted alkane derivatives as agent for treatment or prophylaxis of diabetes and related metabolic disorders” (Council of Scientific and Industrial Research, priority 2003, dated 2006)
Marks after values point to notes of the source that are not given here.

Experiments:
[1] = test system: normal rats; experiment: Hypoglycaemic activity on OGTT of normal rats (sucrose-loaded rat model); assay type: in vivo, Sprague Dawley rats; details: 100-mg/kg, oral, 120 min post glucose load
Procedure: Sucrose-Loaded Rat Model:
Overnight fasted male Sprague Dawley rats were used for the sucrose-loaded experiment. Blood was collected at ‘0’ min from the tail vein of the animals. After the ‘0’ min blood collection, samples/drugs were given to the test group consisting of 5 rats by oral gavage at a dose of 100 mg/kg. Half an hour post test sample treatment, a sucrose-load of 10.0 gm/kg body weight was given to each rat. The blood was collected at 30, 60, 90 & 120 min post sucrose-load.
The antidiabetic effect of test compounds (compound no. 1 and 4) and standard drug Glybenclamide, Gliclazide on OGTT of normal rats was determined.

[2] = test system: STZ-induced diabetic rats; experiment: Streptozotocin-induced diabetic rat model, single-dose effect on blood glucose; assay type: in vivo, Sprague Dawley rats; details: 100 mg/kg; for lowering on blood glucose in STZ-induced diabetic rats: 1 to 7 hours post drug administration; for start of blood glucose lowering post drug administration: STZ-induced diabetic rats
Procedure: Streptozotocin-Induced Diabetic Rat Model:
Single-dose effect; Sprague Dawley strain male albino rats of average body weight 160±20 g were selected for this study. A calculated amount of the fresh solution of STZ dissolved in 100 mM citrate buffer (ph 4.5) was injected to overnight fasted rats (60 mg/Kg) intraperitoneally. Blood was checked for glucose content 48 h later by glucometer & animals showing blood glucose profile above 250 mg/dl were selected and were divided into different groups. Blood-glucose levels were again tested at 1, 2, 3, 4, 5, 6, 7 and 24 h post test sample/drug administration. Food but not water was withdrawn from the cages during the experiment.
The effect of Test compound 1 and standard antidiabetic drug Glybenclamide and gliclazide on blood glucose lowering in STZ-induced diabetic rats were determined. […] The lowering started from 1-hour that persisted up to 7-hours post drug administration.

[3] = test system: HFD fed dyslipemic hamsters; experiment: Dyslipemic hamster model (fructose rich high fat diet); assay type: in vivo, golden syrian hamster
Source text: (b) Dyslipemic Hamster Model: Male golden syrian hamster weighing 120–130 gm were divided into control, dyslipemic and dyslipemic plus drug treated group of 8 animals in each.
Dyslipemia was produced by feeding with fructose rich high fat diet(HFD). Dyslipemic hamsters had free acccess to HFD and water ad. Lib for 10 days (day 1 to day 10). Compound 1 was macerated in vehicle containing 0.2% CMC+0.4% tween-80 in distilled water and fed orally at the dose of 300[…] mole/kg from day 4 to day 10 simultaneously with HFD feeding to hamster. Control animals received same amount of vehicle. At the end of the experiment on 10th day, blood was withdrawn and plasma was used for assay of triglyceride(Tg), cholesterol(chol), high density lipoprotein(HDL), glucose, glycerol and free fatty acids(FFA) by standard spectrophotometric methods on auto analyser. In another set of experiment antidyslipemic activity of fenofibrate at the dose of 1000[…] mole/kg was evaluated.

[4] = test system: hyperlipedemic rats (triton WR-1339); experiment: Lipid lowering activity, Triton model (triton WR-1339 induced hyperlipedemia); assay type: in vivo, Charles foster rats; details: 100 mg/kg oral simultaneously with triton, plasma after 18 hrs, vs hyperlipemic group
Procedure: (a)Triton Model: Male Charles foster rats weighing 200–225 g were divided into control, hyperlipedemic and hyperlipedemic plus drug treated groups containing six animals each. Hyperlipedemia was induced by administration of triton WR-1339(400 mg/kg,IP). All animals were maintained on standard pellet diet and water ad lib. Test compound no. 1 and Gugulipid (standard drug) were macerated with 2% aqueous gum acacia and this suspension was fed orally at the dose of 100 mg/kg simultaneously with triton. The animals of control group received same amount of gum acacia. At the end of experiment, after 18 hrs, blood was withdrawn from retro orbital plexus and plasma was used for the assay of total cholesterol, phospholipid and triglyceride by standard spectrophotometric method. Results: Administration of triton in rats produced marked hyperlipedemia as observed by the increased levels of plasma cholesterol, phospholipid and triglyceride by 2.92, 3.32, 3.64 folds respectively (Table-1).

[5] = 1000 μmol/kg, another set of experiment
[6] = dose 1000 (μ)mole/kg, HFD fed dyslipemic hamsters
[7] = 300 μmol/kg oral day 4 to day 10, plasma on 10th day
[8] = dose 300 (μ)mole/kg, HFD fed hamsters

For `Cc1ccc(S(=O)(=O)NC(=O)NN2CC3CCCC3C2)cc1` (stereo not drawn) [Gliclazide], the “lowering on OGTT of normal rats” value [1] was 44.8%, the “lowering on blood glucose in STZ-induced diabetic rats” value (shortened to “lowering on blood glucose”) [2] was 27.7% and the “start of blood glucose lowering post drug administration” value [2] was 1 h.

With `CC(C)OC(=O)C(C)(C)Oc1ccc(C(=O)c2ccc(Cl)cc2)cc1` [Fenofibrate] the “per cent change in CHOL” value [3, 5] was −30** per cent, the “per cent change in FFA” value [3, 5] was −53** per cent and the “per cent change in GLU” value [3, 5] was −33** per cent. The “per cent change in GLY” value [3, 5] was −52** per cent, the “per cent change in HDL” value [3, 5] was “+33** per cent” and the “per cent change in TG” value [3, 5] was −77** per cent. The “increase in plasma HDL” value [3, 6] was 33%, the “lowering in plasma FFA” value [3, 6] was 53% and the “lowering in plasma Tg” value [3, 6] was 77%. The “lowering in plasma chol” value [3, 6] was 30%, the “lowering in plasma glucose” value [3, 6] was 33% and the “lowering in plasma glycerol” value [3, 6] was 52%.

For `COc1ccc(NCCCOc2ccc3ccccc3c2)cc1` [Compound 1, N-(4-Methoxyphenyl)-[3-(naphthalen-2-yloxy)propyl]amine], the “per cent change in CHOL” value [3, 7] was −8 per cent, the “per cent change in GLU” value [3, 7] was −31** per cent and the “per cent change in GLY” value [3, 7] was −14 per cent. For the same compound, the “per cent change in HDL” value [3, 7] was “+15 per cent”, the “per cent change in TG” value [3, 7] was −48** per cent and the “change in FFA levels” value [3, 8] was “No significant change”. The “increase in plasma HDL” value [3, 8] was 15%, the “reduced level of plasma Tg” value [3, 8] was 48% and the “reduced level of plasma chol” value [3, 8] was 8%. For the same compound, the “reduced level of plasma glucose” value [3, 8] was 31%, the “reduced level of plasma glycerol” value [3, 8] was 14% and the “lowering on OGTT of normal rats” value [1] was 33.6%. For the same compound, the “lowering on blood glucose” value [2] was 28.0%, the “start of blood glucose lowering post drug administration” value [2] was 1 h and the “% lowering of plasma lipids: Triglyceride” value [4] was 28%. For the same compound, the “% lowering of plasma lipids: Cholesterol” value ([4]; listed as Test Compound 1) was 26* %, the “% lowering of plasma lipids: Phospholipid” value ([4]; listed as Test Compound 1) was 33** % and the “% lowering of plasma lipids: Triglyceride” value ([4]; listed as Test Compound 1) was 28* %.

`COc1ccc(Cl)cc1C(=O)NCCc1ccc(S(=O)(=O)NC(=O)NC2CCCCC2)cc1` [Glybenclamide] was tested, and the “lowering on OGTT of normal rats” value [1] was 33.9%, the “lowering on blood glucose” value [2] was 32.8% and the “start of blood glucose lowering post drug administration” value [2] was 1 h.
